IC50 data for 29 compounds are collected here from ChEMBL document CHEMBL3351326, “Discovery of substituted 6-pheny-3H-pyridazin-3-one derivatives as novel c-Met kinase inhibitors” (Bioorg Med Chem Lett, 2014).

A word on the IC50: it is the midpoint of a concentration-inhibition curve.

One experiment concerns NCI-H1993. Briefly: Cytotoxicity against human NCI-H1993 cells after 72 hrs by WST8 assay. The note with it: NCI-H1993, 72 h. For orientation: Formazan colour is commonly taken as a measure of viable cells.
The nature of experiment [1]: Cytotoxicity against human NCI-H3122 cells after 72 hrs by WST8 assay. The note with it: NCI-H3122, 72 h.
A short description of experiment [2]: Cytotoxicity against human U87MG cells after 72 hrs by WST8 assay. Format: functional, cell-based, U-87MG ATCC. Conditions: U-87 MG.
Another experiment is described as follows: cells. The note with it: Homo sapiens, Hs746T, 72 h.

Description for cells: Cytotoxicity against human Hs 746T cells after 72 hrs by WST8 assay

As for `O=c1ccc(-c2ccc(F)c(Cl)c2)nn1C[C@@H]1CN(c2ncc(-c3cnn(C4CCNCC4)c3)cn2)CCO1`, the IC50 was found to be 790 nM with NCI-H1993, 1700 nM in experiment [1], 1200 nM in experiment [2] and 71 nM in the experiment “cells”.
`Cn1cc(-c2cnc(N3CCO[C@H](Cn4nc(-c5ccc(OCc6ccccc6)cc5)ccc4=O)C3)nc2)cn1`: the IC50 with NCI-H1993 is 4100 nM; in experiment [1] it was above 10000 nM; in experiment [2], 7600 nM; in the experiment “cells” it was 3020 nM.
On the same counts, the results for `N#Cc1cccc(-c2ccc(=O)n(C[C@@H]3CN(c4ncc(-c5cnn(C6CCNCC6)c5)cn4)CCO3)n2)c1` are 110 nM, above 10000 nM, above 10000 nM and 1.2 nM.
The corresponding values for `O=c1ccc(-c2cc(F)cc(F)c2)nn1C[C@@H]1CN(c2ncc(-c3cnn(C4CCNCC4)c3)cn2)CCO1` are 1600 nM, 1900 nM, 3200 nM and 450 nM.
On to `O=c1ccc(-c2cccc(Cl)c2)nn1C[C@@H]1CN(c2ncc(-c3cnn(C4CCNCC4)c3)cn2)CCO1`, for which the IC50 is 3400 nM in the experiment with NCI-H1993, above 10000 nM in experiment [1], 9900 nM in experiment [2] and 750 nM in the experiment “cells”.
The corresponding values for `O=c1ccc(-c2cccc(C(F)(F)F)c2)nn1C[C@@H]1CN(c2ncc(-c3cnn(C4CCNCC4)c3)cn2)CCO1` are 1300 nM, 1400 nM, 2500 nM and 84 nM.
On the same counts, the results for `O=c1ccc(-c2cc(F)c(F)c(F)c2)nn1C[C@@H]1CN(c2ncc(-c3cnn(C4CCNCC4)c3)cn2)CCO1` are 1200 nM, 1500 nM, 1500 nM and 230 nM.
On the same counts, the results for `O=c1ccc(-c2cccc(F)c2)nn1C[C@@H]1CN(c2ncc(-c3cnn(C4CCNCC4)c3)cn2)CCO1` are 3500 nM, 7500 nM, 4900 nM and 220 nM.
As to `O=c1ccc(-c2cccc(F)c2)nn1C[C@@H]1CN(c2ncc(-c3cnn(C4CCN(CCO)CC4)c3)cn2)CCO1`, the concentration for half-maximal inhibition (IC50) worked out at 3200 nM with NCI-H1993, 3300 nM in experiment [1], 3400 nM in experiment [2] and 460 nM in the experiment “cells”.
In the case of `O=c1ccc(-c2ccc(F)cc2)nn1C[C@@H]1CN(c2ncc(-c3cnn(C4CCN(CCO)CC4)c3)cn2)CCO1`, the IC50 in the experiment with NCI-H1993 was 3800 nM; in experiment [1], above 10000 nM; in experiment [2] it was above 10000 nM; in “cells” it was 280 nM.
With `O=c1ccc(-c2cc(F)c(F)c(F)c2)nn1C[C@@H]1CN(c2ncc(-c3cnn(C4CCN(CCO)CC4)c3)cn2)CCO1`, the concentration for half-maximal inhibition (IC50) in experiment [1] is above 10000 nM; in experiment [2] it was 4070 nM; in the experiment “cells” it was 190 nM.
With `CN1CCC(n2cc(-c3cnc(N4CCO[C@H](Cn5nc(-c6cccc(F)c6)ccc5=O)C4)nc3)cn2)CC1`, the IC50 in the experiment on NCI-H1993 was 3200 nM; in experiment [1], 3300 nM; in experiment [2], 3400 nM; in “cells”, 460 nM.
As to `CN1CCC(n2cc(-c3cnc(N4CCO[C@H](Cn5nc(-c6cc(F)c(F)c(F)c6)ccc5=O)C4)nc3)cn2)CC1`, the IC50 in the experiment with NCI-H1993 amounted to 3600 nM; in experiment [1], 7600 nM; in experiment [2], 9100 nM; in “cells”, 480 nM.
The corresponding values for `CN1CCC(n2cc(-c3cnc(N4CCO[C@H](Cn5nc(-c6ccc(F)c(F)c6)ccc5=O)C4)nc3)cn2)CC1` are 5700 nM, above 10000 nM, above 10000 nM and 940 nM.
With `CN1CCC(n2cc(-c3cnc(N4CCO[C@H](Cn5nc(-c6ccc(F)c(Cl)c6)ccc5=O)C4)nc3)cn2)CC1`, the IC50 was 1200 nM with NCI-H1993, 1400 nM in experiment [1], 1500 nM in experiment [2] and 14 nM in the experiment “cells”.
Take `Cn1cc(-c2cnc(N3CCO[C@H](Cn4nc(-c5cccc(C#N)c5)ccc4=O)C3)nc2)cn1`: the IC50 was 10 nM in the experiment with NCI-H1993, above 1000 nM in experiment [1], above 1000 nM in experiment [2] and 0.7 nM in “cells”.
As to `N#Cc1cccc(-c2ccc(=O)n(C[C@@H]3CN(c4ncc(-c5cnn(CCOC6CCCCO6)c5)cn4)CCO3)n2)c1` (some centres undefined), the IC50 with NCI-H1993 was 2600 nM; in experiment [1] it was above 10000 nM; in experiment [2], above 10000 nM; in “cells” it was 460 nM.
Turning to `N#Cc1cccc(-c2ccc(=O)n(C[C@@H]3CN(c4ncc(-c5cnn(CCO)c5)cn4)CCO3)n2)c1`, the IC50 with NCI-H1993 is 1500 nM; in experiment [1] it was above 10000 nM; in experiment [2], above 10000 nM; in “cells” it was 180 nM.
Regarding `CN1CCC(COc2cnc(N3CCO[C@H](Cn4nc(-c5cccc(C#N)c5)ccc4=O)C3)nc2)CC1`, the IC50 in the experiment with NCI-H1993 was 2400 nM; in experiment [1], above 10000 nM; in experiment [2] it was above 10000 nM; in “cells”, 430 nM.
With `N#Cc1cccc(-c2ccc(=O)n(C[C@@H]3CN(c4ncc(-c5cnn(CC6CCN(CCO)CC6)c5)cn4)CCO3)n2)c1`, the IC50 in the experiment on NCI-H1993 is 2100 nM; in experiment [1], above 10000 nM; in experiment [2] it was above 10000 nM; in the experiment “cells”, 3.4 nM.
As for `N#Cc1cccc(-c2ccc(=O)n(C[C@@H]3CN(c4ncc(C5=CCNCC5)cn4)CCO3)n2)c1`, the IC50 is 3800 nM with NCI-H1993, above 10000 nM in experiment [1], 9700 nM in experiment [2] and 740 nM in “cells”.
On the same counts, the results for `CN1CC=C(c2cnc(N3CCO[C@H](Cn4nc(-c5cccc(C#N)c5)ccc4=O)C3)nc2)CC1` are 4100 nM, above 10000 nM, above 10000 nM and 1200 nM.
With `N#Cc1cccc(-c2ccc(=O)n(C[C@@H]3CN(c4ncc(C5=CCN(CCO)CC5)cn4)CCO3)n2)c1`, the IC50 was 2500 nM in the experiment on NCI-H1993, above 10000 nM in experiment [1], above 10000 nM in experiment [2] and 210 nM in the experiment “cells”.
In the case of `N#Cc1cccc(-c2ccc(=O)n(C[C@@H]3CN(c4ncc(-c5ccc(OCCN6CCOCC6)cc5)cn4)CCO3)n2)c1`, the IC50 with NCI-H1993 is 1800 nM; in experiment [1], above 10000 nM; in experiment [2] it was 3400 nM; in “cells”, 410 nM.
`N#Cc1cccc(-c2ccc(=O)n(C[C@@H]3CN(c4ncc(-c5ccc(OCCN6CCOCC6)c(Cl)c5)cn4)CCO3)n2)c1`: the IC50 in the experiment with NCI-H1993 is 1200 nM; in experiment [1], above 10000 nM; in experiment [2], 1400 nM; in “cells”, 1420 nM.
On the same counts, the results for `N#Cc1cccc(-c2ccc(=O)n(C[C@@H]3CN(c4ncc(-c5ccnc(F)c5)cn4)CCO3)n2)c1` are 7400 nM, above 10000 nM, above 10000 nM and 7150 nM.
On to `CN1CCN(c2ccc(-c3cnc(N4CCO[C@H](Cn5nc(-c6cccc(C#N)c6)ccc5=O)C4)nc3)cn2)CC1`, for which the IC50 was 1300 nM with NCI-H1993, 1400 nM in experiment [1], 1600 nM in experiment [2] and 650 nM in the experiment “cells”.
On to `N#Cc1cccc(-c2ccc(=O)n(C[C@@H]3CN(c4ncc(-c5ccc(OCCN6CCOCC6)nc5)cn4)CCO3)n2)c1`, for which the IC50 came out at 3700 nM in the experiment on NCI-H1993, 9800 nM in experiment [1] and 740 nM in the experiment “cells”.
Take `N#Cc1cccc(-c2ccc(=O)n(C[C@@H]3CN(c4ncc(-c5cnn(C6CCN(C7CCOCC7)CC6)c5)cn4)CCO3)n2)c1`: the IC50 in the experiment on NCI-H1993 is 230 nM; in experiment [1], above 10000 nM; in experiment [2] it was above 10000 nM; in the experiment “cells” it was 13 nM.
